Data set [1] in a line: Reverse-phase HPLC retention time as measure of peptide hydrophobicity. The class given is physicochemical. As to conditions: HPLC on reverse-phase matrix, aqueous solution; used by the paper as measure of hydrophobicity. An excerpt:
The retention time of peptides on a reverse-phase matrix has been reported to be related to peptide hydrophobicity ([34]).

Data set [2] relates to LPS-stimulated RAW264.7 cells. Put plainly: Time of addition experiment (peptide pretreatment, LPS neutralization, post-treatment) in RAW264.7 cells. As to conditions: ELISA. The class given is cell-based, mouse. As for the experimental part:
To identify the mechanisms underlying the anti-inflammatory effects, three different types of treatments were performed as follow.
Briefly, 10 μg/ml peptide was added to the cell culture medium and incubated with cells for 1 h at 37°C Afterwards, the RAW 264.7 cells were washed with PBS and cultured with fresh medium containing 100 ng/ml LPS for 12 h at 37°C. After treatment, TNF-α, IL-6, and IL-1β secretion in the cell supernatants was assessed.
The peptides (10 μg/ml) were incubated with 100 ng/ml LPS directly for 1 h at 37°C. RAW 264.7 cells were stimulated with these mixtures for 12 h at 37°C. Afterwards, the TNF-α, IL-6 and IL-1β levels in the cell supernatants were assessed.
Briefly, 100 ng/ml LPS was added to the cell culture medium and incubated with cells for 1 h at 37°C. Afterwards, the RAW 264.7 cells were washed with PBS and cultured with fresh medium containing 10 μg/ml peptides for 12 h at 37°C. Afterwards, the TNF-α, IL-6, and IL-1β levels in the cell supernatants were assessed.
The levels of tumor necrosis factor (TNF)-α, interleukin (IL)-6, and IL-1β in cell culture supernatants and the levels of TNF-α, IL-6, and IL-1β in the serum of mice were detected using commercial ELISA kits (eBioscience, San Diego, USA) according to the manufacturer’s instructions. The levels of serum alanine amino transferase (ALT) and aspartate amino transferase (AST) were detected using commercial reagent kits (Nanjing Jiancheng Bioengineering Institute, Nanjing, China). The activity of myeloperoxidase (MPO) in the liver of mice was detected using an ELISA kit (Boster, Wuhan, China) according to the manufacturer’s instructions.
Background: ELISA stands for enzyme-linked immunosorbent assay.

Data set [3] is described as follows: LPS neutralization, chromogenic end-point Tachypleus Amebocyte Lysate (TAL) assay. The format is binding, E. coli. As to conditions: chromogenic TAL assay, LPS 1.0 U/ml, 0 to 64 μg/ml peptide. On the procedure: The neutralization of LPS by the peptides was assessed through a quantitative Chromogenic End-point Tachypleus Amebocyte Lysate (CE TAL) assay using a QCL-1000 kit (XIAMEN BIOENDO TECHNOLOGY CO., China). LPS (E. coli, O111:B4, Sigma-Aldrich, USA) at a final concentration of 1.0 U/ml was incubated with various concentrations of the peptides (0 to 64 μg/ml final concentration) at 37°C for 15 min. Afterwards, the mixtures were incubated with TAL assay reagent at 37°C; for 6 min, and the absorbance was measured at 540 nm.

Data set [4] deals with RAW264.7 cells. Put plainly: Cellular uptake and localization of FITC-labeled peptides (confocal microscopy, flow cytometry). The class given is cell-based, mouse. Conditions: N-terminus FITC-labeled peptide, 10 μg/ml, 24 h, 37°C, confocal microscopy and flow cytometry (average FITC intensity). As for the experimental part: RAW264.7 cells were treated with N-terminus FITC-labeled peptides at 10 μg/ml for 24 h at 37°C; in the dark. Then, the RAW264.7 cells were rinsed with PBS three times, fixed with paraformaldehyde and washed with PBS. The cell nuclei were stained with DAPI (diluted 1:500 in PBS) (Sigma, USA) for 5 min, and the cells were washed with PBS. The above cells were spread on a glass slide, fixed and observed with a Leica TCA sp5 confocal microscope (Germany).
RAW264.7 cells were stained with 10 μg/ml N-terminus FITC-labeled peptides at 37°C in the dark for 24 h. Afterwards, the RAW264.7 cells were harvested and rinsed with PBS five times. The average FITC intensity in the cells was measured via flow cytometry.

For data set [5], the system named is TLR4/MD-2 complex. In words: Surface plasmon resonance binding. Conditions: SPR, Biacore X100, PBS with 0.05% Tween 20, 30 μl/min, 1:1 model, 0 to 10 μM. As for the experimental part: SPR assays were performed using a Biacore X100 instrument (GE Healthcare, Pittsburgh, PA, USA). PBS containing 0.05% Tween 20 was used as the running buffer. The running buffer was continuously passed into the reaction chamber at 30 μl/min. Immobilization of CTP-NH2 on the chip surface was performed according to an amino coupling protocol. […] Running buffer was injected into the empty channel as a reference. To regenerate the chip surface at the end of each experiment, 10 mM Gly-HCl buffer (pH 2.5) was injected. ProteOn manager software (version 2.0) was used to analyze the experimental data. The binding curves were processed for the start injection alignment and baseline. A reference-subtracted sensorgram was then fitted to the curves describing a homogeneous 1:1 model. Data from the protein surfaces were grouped together to fit the association kinetic rate constant (Ka) and the dissociation rate constant (Kd). The equilibrium dissociation constant (KD) for the peptide-TLR4/MD-2 interaction was calculated as follows: […]

The test system of data set [6] is NF-κB signaling pathway in LPS-treated RAW264.7 cells. Put plainly: Western blotting of the NF-κB signaling pathway. The format is cell-based, mouse. As to conditions: 100 ng/ml LPS 1 h, wash, CTP-NH2 3 h, western blot. As for the experimental part: RAW264.7 cells plated at a density 1.8 × 10^6 cells/ml were incubated with LPS (100 ng/ml) at 37°C for 1 h. After that, the cells were washed extensively with PBS before being treated with CTP-NH2 for 3 h at 37°C, followed by lysis of the cells. Cytoplasmic and nuclear protein fractions were obtained using NR-PER Nuclear and Cytoplasmic Extraction Reagents (Thermo Fisher Scientific Inc., New Zwaland). The protein concentrations were assessed with a […] (KeyGEN Biotech. Nanjing, China) according to the manufacturer’s instructions. Afterwards, total protein (40 μg protein/lane) was separated on 10% SDS-PAGE gels and then transferred to PVDF membranes (Bio-Rad). Next, the membranes were blocked with 5% non-fat dried-milk containing 0.05% TBST and then immunoblotted with specific primary antibodies against IKK-β, p-IKK-β, IкB-α, p-IкB-α, NF-кB (p65), p-NF-кB (p-p65), and β-actin (Santa Cruz, CA, USA). After being washed with TBST, the membranes were incubated with HRP-conjugated secondary antibodies (HuaAn, Hangzhou, China). A ChemiDoc MP Imaging System (Bio-Rad, Hercules, CA, USA) was used to quantify the density of the specific proteins.
(In general: In western blotting, separated proteins are transferred to a membrane and probed.)

As to “RWGRFLRKIRRFRRKDVT-NH2 [CTP-NH2, C-terminal amidated derivative peptide of CTP]”, the Retention time in data set [1] is given as 11.96 min. Further, the “TNF-α and IL-6 level, peptide used to pretreat cells or added after LPS induction” value in data set [2] (10 μg/ml peptide 1 h then wash and 100 ng/ml LPS 12 h, or LPS 1 h, wash, then peptide 12 h) is listed as “reduced the concentration of TNF-α”. Further, in data set [2] (10 μg/ml peptide incubated with 100 ng/ml LPS 1 h at 37°C, mixture on cells 12 h), the “TNF-α and IL-6 release, peptide incubated with LPS” value is “more potency than CTP”. Moreover, the “LPS neutralization activity” value in data set [3] is reported as “stronger than that of CTP”. For the same substance, the “cellular uptake and localization” value in data set [4] was “significant cellular uptake and a dispersed distribution compared with CTP”. In data set [5], this substance registered a Ka (association kinetic rate constant) of 1.65e+07 M⁻¹ s⁻¹. Further, the “phosphorylation of IKK-β, IκB-α and NF-κB” value in data set [6] is listed as “dampened levels of IKK-β”.

Values taken from publication PMC7892475, “C-Terminal Amination of a Cationic Anti-Inflammatory Peptide Improves Bioavailability and Inhibitory Activity Against LPS-Induced Inflammation” (Frontiers in Immunology, 2021).
